US8436005B2, “Macrocyclic pyrimidine derivatives” (Abbott Laboratories, priority 2008, dated 2013)

Test system: carrageenan-induced thermal hyperalgesia
Assay: Acute model of carrageenan-induced thermal hyperalgesia (hotbox assay)
Type: in vivo
Settings: 100 micromole/kg intraperitoneally, 90 minutes after carrageenan, tested 30 minutes after dosing
Method: To assess the effectiveness of representative compounds of the invention against acute model inflammatory pain, animals can be tested in an acute model of carrageenan-induced thermal hyperalgesia (see for example, Honore, et al. Behavioural Brain Research (2006) vol. 167 pp. 355-364; Porreca, et al. Journal of Pharmacology and Experimental Therapeutics (2006) vol. 318 pp. 195-205). Carrageenan is injected into the test paw of the animal, and after 90 minutes, the test drug is administered by intraperitoneal dosing; the effect on thermal hyperalgesia is assessed in a hotbox assay which is done 30 minutes after the intraperitoneal dosing of the test drug. The MPE (maximal percent effect) is reported by comparison to the control paw (not injected with carrageenan), MPE being expressed as 100 times the withdrawal latency of the carrageenan injected paw (in seconds) divided by the withdrawal latency of the control (not injected with carrageenan) paw.

SMILES | MPE (maximal percent effect), withdrawal latency of carrageenan injected paw vs control paw
Nc1nc2c(c(N3CCNCC3)n1)CCCCC2c1ccccc1 (centres unmarked) [Example 19, 9-phenyl-4-(piperazin-1-yl)-6,7,8,9-tetrahydro-5H-cyclohepta[d]pyrimidin-2-amine] | 26%
Nc1nc2c(c(N3C[C@H]4CCCN[C@H]4C3)n1)CCCCC2c1ccccc1 (stereo partly drawn) [Example 21, 9-phenyl-4-((4aR,7aR)-tetrahydro-1H-pyrrolo[3,4-b]pyridin-6(2H,7H,7aH)-yl)-6,7,8,9-tetrahydro-5H-cyclohepta[d]pyrimidin-2-amine] | 24%
